# Data published in US20240285653A1, “COMPOSITIONS AND METHODS FOR TREATMENT AND PREVENTION OF DISEASES UTILIZING TIRILAZAD SALTS” (priority 2022, published 2024).
# Read-outs that look alike come from different tables or passages of the source.
# Test system: explant tissue from the dermoepidermal junction of the hoof
# Format: cell-based
# Protocol: An in vitro study was conducted to analyze the protective effects of tirilazad mesylate on cellular degeneration as a result of Bothrops alternatus snake venom as a model for laminitis. Explant tissue samples were obtained from the dermoepidermal junction of the hoof of the right forelimb under nervous system block without the need for euthanasia.
# Under sterile conditions, laminar cuts (mini-explants) were made of each explant and the tissue washed with physiological solution. The mini-explants were pre-incubated for 5 hours with tirilazad and then for 24 hours with Bothrops venom. Culture medium was as follows: Dulbecco's […] (DMEM, GIBCO-Invitrogen) with 10% heat-inactivated fetal bovine serum (FBS, GIBCO-Invitrogen), L-Glutamine (29.2 mg/mL), Penicillin (10,000 units/mL), and Streptomycin (10,000 μg/mL, GIBCO-Invitrogen) as antibiotics.
# Histopathology: Tissues were processed with classical histological techniques, e.g., cutting by microtome (Minot) and stained with hematoxylin-eosin (H-E) and Periodic Acid Schiff (PAS) stains.
# [1] = Tirilazad 1 μM (5 hours pre-incubation) + venom 75 μg/ml (24 hours), listed as tirilazad
# [2] = Tirilazad 1 μM alone, no venom, listed as tirilazad
# [3] = Tirilazad 3 μM (5 hours pre-incubation) + venom 75 μg/ml (24 hours)
# [4] = Tirilazad 3 μM alone, no venom, listed as tirilazad
# [5] = Tirilazad 10 μM (5 hours pre-incubation) + venom 75 μg/ml (24 hours), listed as tirilazad
# [6] = Tirilazad 10 μM alone, no venom
# [7] = Tirilazad 10 μM alone, no venom, listed as tirilazad
# [8] = Tirilazad 20 μM (5 hours pre-incubation) + venom 75 μg/ml (24 hours)
# [9] = Tirilazad 20 μM alone, no venom
smiles,measurement,setting,value
"C[C@@H]1C[C@H]2[C@@H]3CCC4=CC(=O)C=C[C@]4(C)C3=CC[C@]2(C)[C@H]1C(=O)CN1CCN(c2cc(N3CCCC3)nc(N3CCCC3)n2)CC1 [Tirilazad, 16α-methyl-21-[4-[2,6-bis(1-pyrrolidinyl)-4-pyrimidinyl]-1-piperazinyl]pregna-1,4,9(11)-triene-3,20-dione]",Separation of Basement Membrane,Tirilazad 1 μM (5 hours pre-incubation) + venom 75 μg/ml (24 hours),No
same,Cell Nuclei,[1],intense presence of altered epidermal cells
same,Pyknosis or Karyopyknosis,[1],nuclear pyknosis
same,Separation of Basement Membrane,[1],did not show separation of the basement membrane
same,Pyknosis or Karyopyknosis,"Tirilazad 1 μM alone, no venom",No
same,Separation of Basement Membrane,"Tirilazad 1 μM alone, no venom",No
same,Cell Nuclei,[2],epidermal cells were normal and showed preserved cytoplasmic and nuclear structure
same,Separation of Basement Membrane,[2],did not show separation of the basement membrane
same,Cell Nuclei,[3],intense presence of altered epidermal cells
same,Pyknosis or Karyopyknosis,[3],nuclear pyknosis predominating
same,Separation of Basement Membrane,[3],slight separation of the basement membrane
same,Separation of Basement Membrane,"Tirilazad 3 μM alone, no venom",No
same,Cell Nuclei,[4],slight epidermal cytoplasmic and nuclear alteration
same,Separation of Basement Membrane,[4],did not show separation of the basement membrane
same,Separation of Basement Membrane,Tirilazad 10 μM (5 hours pre-incubation) + venom 75 μg/ml (24 hours),No
same,Cell Nuclei,[5],Moderate presence of altered epidermal cells
same,Pyknosis or Karyopyknosis,[5],moderate nuclear pyknosis
same,Separation of Basement Membrane,[5],did not show separation of the basement membrane
same,Pyknosis or Karyopyknosis,[6],No
same,Separation of Basement Membrane,[6],No
same,Cell Nuclei,[7],epidermal cells were normal and showed preserved cytoplasmic and nuclear structure
same,Separation of Basement Membrane,[7],did not show separation of the basement membrane
same,Cell Nuclei,[8],intense presence of altered epidermal cells
same,Pyknosis or Karyopyknosis,[8],intense nuclear pyknosis
same,Separation of Basement Membrane,[8],intense separation of the basement membrane
same,Cell Nuclei,[9],epidermal cells were normal and showed preserved cytoplasmic and nuclear structure
same,Pyknosis or Karyopyknosis,[9],No
same,Separation of Basement Membrane,[9],intense separation of the basement membrane
same,Effect on cellular structure in hoof tissue (overall conclusion),summary of the explant study,provides a protective and/or therapeutic effect on cellular structure in hoof tissue
